Measured values: US11559497B2 (Guangzhou Dazhou Biomedicine Ltd., priority 2020, dated 2023)

Columns and labels:
patients = settings: cited from earlier work
[1] = Phase 1 clinical study: plasma pharmacokinetics after ketamine transdermal patch; settings: for AUC / AUC(0-inf) / Cmax / half-life / Tmax: human, plasma, other: transdermal patch; for AUC(0-inf): AUCinf
Procedure: Enrollment was planned to achieve participation of up to 14 adult subjects with MDD in the 3 stages of the protocol. Subjects were to be screened within 4 weeks of enrollment. Eligible subjects who provided written consent were to be enrolled into Stage 1 of the study. In Stage 1 of the study, subjects were to receive the low-dose transdermal patch. The amount of residual drug was to be measured and PK analysis conducted for each subject to inform the subsequent dosing. In Stage 2, after a 2 to 4 week washout period, a placebo patch was to be administered. A “deception” protocol was used in order to ensure the subjects remained blinded to the treatment. Placebo administration was followed by a 1 week washout period, after which subjects were to receive the high-dose transdermal patch in Stage 3. The overall study duration from screening until the end of Stage 3 was approximately 60 days, including both inpatient and outpatient portions of the study. The general study design is illustrated in FIG. 3.
The patch was predicted to deliver systemically approximately 20 mg.
For Stage 1, blood samples were collected pre-patch application, and at 2, 6, 12, 24, 28, 32, 48, 96, and 168 hours post-patch application.
Blood samples were collected in tubes containing sodium heparin and stored on ice or room temperature until centrifuged under refrigeration or room temperature for at least 10 minutes at 3,000 revolutions per minute. After centrifugation, plasma was removed, divided into 2 aliquots of approximately 0.6 mL each, frozen, and stored at or below −20° C. Blood was processed to plasma and frozen within 1 hour of collection. Processed frozen plasma samples were transferred on dry ice to the analytical laboratory and were stored at or below −20° C. until bioanalysis was performed.
A non-compartmental analysis (NCA) was used to calculate PK parameters using Phoenix® WinNonlin® 6.4 or later (Certara, USA).

[2] = cited from earlier work
[3] = tested on: subjects diagnosed with major depressive disorder (MDD); experiment: Phase 1 clinical study: safety; type: in vivo, human
Excerpt: Safety data included adverse events (AEs), concomitant medications, PE, vital signs (VS), ECGs, clinical laboratory results, other safety measures based on questionnaires (Clinician-Administered Dissociative States Scale [CADSS], Observer's Assessment of Alertness/Sedation Scale [OAA/S], Brief Psychiatric Rating Scale [BPRS]), and the emergence of suicidality based on the suicidal ideation and suicidal behavior ratings of the Columbia-Suicide Severity Rating Scale (C-SSRS). Safety summaries and analyses were performed on the Safety Population and were presented by treatment. Observed data was summarized using counts and percentages for discrete variables and means, SD, median, inter-quartile range (25th-75th percentile), minimum, and maximum for continuous measures.

[4] = Stage 1: Ketamine Low-Dose (N = 18)
[5] = Stage 3: Ketamine High-Dose (N = 12)

In the case of `CNC1(c2ccccc2Cl)CCCCC1=O` (racemic) [Ketamine, ketamine], the “time after which side effects typically resolved” value (patients; 0.5 mg/kg 40 minutes IV infusion) is given as “about 2 hours”, the “duration of antidepressant effect after single dose” value (patients; IV infusion or intranasal spray) is given as “about 3 days” and the “reduction of opioid consumption” value (patients; low-dose IV, perioperative pain, meta-analysis) is given as 40%. For the same compound, the plasma concentration ([1]; 96 hours post dose) was “minimal values”, the plasma concentration ([1]; 168 hours post dose) was “below quantification limit” and the Extrap ([1]; Stage 1, Mean) was 6%. It also gave an Extrap ([1]; Stage 1, Median) of 6%, an Extrap ([1]; Stage 3, Mean) of 4% and an Extrap ([1]; Stage 3, Median) of 3%. The AUC ([1]; 20 mg, AUCall, Stage 1 (60 cm^2 patch, 24 h, low-dose), Mean) was 284 ng·h/mL, the AUC ([1]; 20 mg, AUCall, Stage 1 (60 cm^2 patch, 24 h, low-dose), Median) was 280 ng·h/mL and the AUC(0-inf) ([1]; 20 mg, Stage 1, Mean) was 299 ng·h/mL. For the same compound, the AUC(0-inf) ([1]; 20 mg, Stage 1, Median) was 274 ng·h/mL, the Cmax ([1]; 20 mg, Stage 1, Mean) was ~10.3 ng/mL and the Cmax ([1]; 20 mg, Stage 1, Median) was 9.92 ng/mL. It also gave a half-life ([1]; 20 mg, T1/2, Stage 1, Mean) of 13.2 h, a half-life ([1]; 20 mg, T1/2, Stage 1, Median) of 13.7 h and a Tmax ([1]; 20 mg, Stage 1, Mean) of 27.1 h. The Tmax ([1]; 20 mg, Stage 1, Median) was 28 h, the AUC ([1]; 20 mg, average AUC of ketamine per cm^2 patch over 24 hours, Stage 1) was 3.62 ng·h/mL and the AUC ([1]; 40 mg, AUCall, Stage 3 (20 and 60 cm^2 patches, high-dose), Mean) was 393 ng·h/mL. For the same compound, the AUC ([1]; 40 mg, AUCall, Stage 3 (20 and 60 cm^2 patches, high-dose), Median) was 339 ng·h/mL, the AUC(0-inf) ([1]; 40 mg, Stage 3, Mean) was 423 ng·h/mL and the AUC(0-inf) ([1]; 40 mg, Stage 3, Median) was 362 ng·h/mL. The Cmax ([1]; 40 mg, Stage 3, Mean) was ~14.4 ng/mL, the Cmax ([1]; 40 mg, Stage 3, Median) was 9.67 ng/mL and the half-life ([1]; 40 mg, T1/2, Stage 3, Mean) was 13.8 h. It also gave a half-life ([1]; 40 mg, T1/2, Stage 3, Median) of 14.9 h, a Tmax ([1]; 40 mg, Stage 3, Mean) of 27 h and a Tmax ([1]; 40 mg, Stage 3, Median) of 28 h. The AUC ([1]; 40 mg, average AUC of ketamine per cm^2 patch over 24 hours, Stage 3) was 4.17 ng·h/mL, the absolute oral bioavailability ([2]; humans) was 10-20% and the “systemic (primarily hepatic) clearance” value ([2]; in vivo) was “about 19 ml/min·kg”. For the same compound, the “overall safety and tolerability” value ([3]; 20 mg and 40 mg doses) was “generally safe and well tolerated”, the “At least 1 TEAE, # of Events” value [3, 4] was 3 and the “At least 1 TEAE, n (%)” value [3, 4] was 3 (16.7) n (%). For the same compound, the “Cardiac disorders, # of Events” value [3, 4] was 0, the “Cardiac disorders, n (%)” value [3, 4] was 0 n (%) and the “Contusion, # of Events” value [3, 4] was 1. The “Contusion, n (%)” value [3, 4] was 1(5.6) n (%), the “Depression, # of Events” value [3, 4] was 0 and the “Depression, n (%)” value [3, 4] was 0 n (%). The “Dermatitis, # of Events” value [3, 4] was 0, the “Dermatitis, n (%)” value [3, 4] was 0 n (%) and the “Diarrhoea, # of Events” value [3, 4] was 1. For the same compound, the “Diarrhoea, n (%)” value [3, 4] was 1(5.6) n (%), the “Erythema, # of Events” value [3, 4] was 0 and the “Erythema, n (%)” value [3, 4] was 0 n (%). The “Gastrointestinal disorders, # of Events” value [3, 4] was 1, the “Gastrointestinal disorders, n (%)” value [3, 4] was 1 (5.6) n (%) and the “Headache, # of Events” value [3, 4] was 0. The “Headache, n (%)” value [3, 4] was 0 n (%), the “Infections and infestations, # of Events” value [3, 4] was 0 and the “Infections and infestations, n (%)” value [3, 4] was 0 n (%). The “Injury, poisoning, and procedural complications, # of Events” value [3, 4] was 1, the “Injury, poisoning, and procedural complications, n (%)” value [3, 4] was 1 (5.6) n (%) and the “Nervous system disorders, # of Events” value [3, 4] was 1. For the same compound, the “Nervous system disorders, n (%)” value [3, 4] was 1 (5.6) n (%), the “Psychiatric disorders, # of Events” value [3, 4] was 0 and the “Psychiatric disorders, n (%)” value [3, 4] was 0 n (%). For the same compound, the “Skin and subcutaneous tissue disorders, # of Events” value [3, 4] was 0, the “Skin and subcutaneous tissue disorders, n (%)” value [3, 4] was 0 n (%) and the “Somnolence, # of Events” value [3, 4] was 1. The “Somnolence, n (%)” value [3, 4] was 1 (5.6) n (%), the “Swelling face, # of Events” value [3, 4] was 0 and the “Swelling face, n (%)” value [3, 4] was 0 n (%). The “Tachycardia, # of Events” value [3, 4] was 0, the “Tachycardia, n (%)” value [3, 4] was 0 n (%) and the “Urinary tract infection, # of Events” value [3, 4] was 0. For the same compound, the “Urinary tract infection, n (%)” value [3, 4] was 0 n (%), the “At least 1 TEAE, # of Events” value [3, 5] was 5 and the “At least 1 TEAE, n (%)” value [3, 5] was 4 (33.3) n (%). For the same compound, the “Cardiac disorders, # of Events” value [3, 5] was 0, the “Cardiac disorders, n (%)” value [3, 5] was 0 n (%) and the “Contusion, # of Events” value [3, 5] was 1. The “Contusion, n (%)” value [3, 5] was 1 (8.3) n (%), the “Depression, # of Events” value [3, 5] was 1 and the “Depression, n (%)” value [3, 5] was 1 (8.3) n (%). For the same compound, the “Dermatitis, # of Events” value [3, 5] was 0, the “Dermatitis, n (%)” value [3, 5] was 0 n (%) and the “Diarrhoea, # of Events” value [3, 5] was 0. The “Diarrhoea, n (%)” value [3, 5] was 0 n (%), the “Erythema, # of Events” value [3, 5] was 1 and the “Erythema, n (%)” value [3, 5] was 1 (8.3) n (%). The “Gastrointestinal disorders, # of Events” value [3, 5] was 0, the “Gastrointestinal disorders, n (%)” value [3, 5] was 0 n (%) and the “Headache, # of Events” value [3, 5] was 1. The “Headache, n (%)” value [3, 5] was 1 (8.3) n (%), the “Infections and infestations, # of Events” value [3, 5] was 0 and the “Infections and infestations, n (%)” value [3, 5] was 0 n (%). For the same compound, the “Injury, poisoning, and procedural complications, # of Events” value [3, 5] was 1, the “Injury, poisoning, and procedural complications, n (%)” value [3, 5] was 1 (8.3) n (%) and the “Nervous system disorders, # of Events” value [3, 5] was 1. For the same compound, the “Nervous system disorders, n (%)” value [3, 5] was 1 (8.3) n (%), the “Psychiatric disorders, # of Events” value [3, 5] was 1 and the “Psychiatric disorders, n (%)” value [3, 5] was 1 (8.3) n (%). For the same compound, the “Skin and subcutaneous tissue disorders, # of Events” value [3, 5] was 2, the “Skin and subcutaneous tissue disorders, n (%)” value [3, 5] was 1 (8.3) n (%) and the “Somnolence, # of Events” value [3, 5] was 0. The “Somnolence, n (%)” value [3, 5] was 0 n (%), the “Swelling face, # of Events” value [3, 5] was 1 and the “Swelling face, n (%)” value [3, 5] was 1 (8.3) n (%). The “Tachycardia, # of Events” value [3, 5] was 0, the “Tachycardia, n (%)” value [3, 5] was 0 n (%) and the “Urinary tract infection, # of Events” value [3, 5] was 0. For the same compound, the “Urinary tract infection, n (%)” value [3, 5] was 0 n (%), the “OAA/S change from baseline composite score between treatments” value ([3]; any timepoint) was “No significant differences” and the “TEAEs considered possibly related to the study drug” value ([3]; headache and diarrhoea) was 2. The “PR interval or QTcB interval” value ([3]; human, in vivo) was “No trends in mean change from baseline”, the “SBP, DBP, oxygen saturation, temperature” value ([3]; human, in vivo) was “No notable mean changes from baseline” and the “adverse reactions at the patch application site” value ([3]; human, in vivo) was “no adverse reactions noted at the patch application site”. The “deaths or SAEs” value ([3]; human, in vivo) was “no deaths or SAEs”, the laboratory parameters ([3]; human, in vivo) was “no clinically significant abnormal trends” and the “severe TEAEs” value ([3]; human, in vivo) was “no severe TEAEs”. The “respiratory rate and HR” value ([3]; ketamine high dose) was “a decrease in mean respiratory rate and an increase in HR compared to baseline”, the “BPRS, BPRS-Positive subscale, CADSS total score post-patch application” value ([3]; low-dose or high-dose) was “no increase in the total score of the BPRS, the BPRS-Positive subscale, or the CADSS” and the “TEAEs considered probably related to the study drug” value ([3]; somnolence) was 1.
